# According to ChEMBL document CHEMBL1201862, “PubChem BioAssay data set” (2004):
#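 Values below derive from 48-hour exposures of cells grown in 96-well plates, with endpoints linearly interpolated between the two concentrations bracketing the appropriate inhibition level. GI50: concentration for 50% inhibition of growth.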 Active and inactive are the calls of the source. No stated cut-off is given here; in the data, active = GI50 up to about 1.1 µM and inactive = higher.
# Experiments:
# Experiment in all cases: NCI tumour cell line growth inhibition, 48 h
# SW-620 = tested on: SW-620
# A498 = tested on: A498
# 786-0 = tested on: 786-0
# MCF7 = tested on: MCF7
# SR = tested on: SR
# SF-268 = tested on: SF-268
# CCRF-CEM = tested on: CCRF-CEM
# MDA-MB-435 = tested on: MDA-MB-435
# UACC-62 = tested on: UACC-62
# Malme-3M = tested on: Malme-3M
# MDA-MB-231 = tested on: MDA-MB-231
# K562 = tested on: K562
# OVCAR-5 = tested on: OVCAR-5
# OVCAR-3 = tested on: OVCAR-3
# MOLT-4 = tested on: MOLT-4
# NCI-H460 = tested on: NCI-H460
# SN12C = tested on: SN12C
# TK-10 = tested on: TK-10
# PC-3 = tested on: PC-3
# EKVX = tested on: EKVX
# MDA-N = tested on: MDA-N
# UO-31 = tested on: UO-31
# M14 = tested on: M14
# SF-539 = tested on: SF-539
# HCT-15 = tested on: HCT-15
# HCT-116 = tested on: HCT-116
# SK-MEL-5 = tested on: SK-MEL-5
# HCC 2998 = tested on: HCC 2998
# NCI-H23 = tested on: NCI-H23
# IGROV-1 = tested on: IGROV-1
# HOP-92 = tested on: HOP-92
# Hs-578T = tested on: Hs-578T
# A549 = tested on: A549
# NCI/ADR-RES = tested on: NCI/ADR-RES
# BT-549 = tested on: BT-549
# SK-MEL-28 = tested on: SK-MEL-28
# SF-295 = tested on: SF-295
# HOP-62 = tested on: HOP-62
# OVCAR-8 = tested on: OVCAR-8
# NCI-H226 = tested on: NCI-H226
# T47D = tested on: T47D
# COLO 205 = tested on: COLO 205
# KM12 = tested on: KM12
# UACC-257 = tested on: UACC-257
# ACHN = tested on: ACHN
# HT-29 = tested on: HT-29
# SK-OV-3 = tested on: SK-OV-3
# DU-145 = tested on: DU-145
# SNB-75 = tested on: SNB-75
# RXF 393 = tested on: RXF 393
# U-251 = tested on: U-251
# SNB-19 = tested on: SNB-19
# LOX IMVI = tested on: LOX IMVI
# SK-MEL-2 = tested on: SK-MEL-2
# NCI-H522 = tested on: NCI-H522
# RPMI-8226 = tested on: RPMI-8226
# CAKI-1 = tested on: CAKI-1
# HL-60 = tested on: HL-60
# OVCAR-4 = tested on: OVCAR-4
smiles,measurement,setting,value
O=c1c2c3ccccc3[nH]c2c2cccc3c2n1CCC3,GI50,SW-620,43.3 µM (inactive)
same,GI50,A498,20.7 µM (inactive)
same,GI50,786-0,4.27 µM (inactive)
same,GI50,MCF7,35.1 µM (inactive)
same,GI50,SR,25.9 µM (inactive)
same,GI50,SF-268,33 µM (inactive)
same,GI50,CCRF-CEM,30.5 µM (inactive)
same,GI50,MDA-MB-435,54.6 µM (inactive)
same,GI50,UACC-62,36.5 µM (inactive)
same,GI50,Malme-3M,22 µM (inactive)
same,GI50,MDA-MB-231,28.3 µM (inactive)
same,GI50,K562,32.3 µM (inactive)
same,GI50,OVCAR-5,66.7 µM (inactive)
same,GI50,OVCAR-3,30.6 µM (inactive)
same,GI50,MOLT-4,25.5 µM (inactive)
same,GI50,NCI-H460,34.8 µM (inactive)
same,GI50,SN12C,53.1 µM (inactive)
same,GI50,TK-10,68.9 µM (inactive)
same,GI50,PC-3,26.8 µM (inactive)
same,GI50,EKVX,20.6 µM (inactive)
same,GI50,MDA-N,66.5 µM (inactive)
same,GI50,UO-31,> 10 µM (inactive)
same,GI50,M14,60.5 µM (inactive)
same,GI50,SF-539,40.1 µM (inactive)
same,GI50,HCT-15,32.4 µM
same,GI50,HCT-116,36.6 µM (inactive)
same,GI50,SK-MEL-5,17.6 µM (inactive)
same,GI50,HCC 2998,29.2 µM (inactive)
same,GI50,NCI-H23,45.8 µM (inactive)
same,GI50,IGROV-1,84.5 µM (inactive)
same,GI50,HOP-92,40.2 µM (inactive)
same,GI50,Hs-578T,21.2 µM (inactive)
same,GI50,A549,48.1 µM (inactive)
same,GI50,NCI/ADR-RES,50 µM (inactive)
same,GI50,BT-549,29.6 µM (inactive)
same,GI50,SK-MEL-28,41.8 µM (inactive)
same,GI50,SF-295,37.7 µM (inactive)
same,GI50,HOP-62,54.1 µM (inactive)
same,GI50,OVCAR-8,50.9 µM (inactive)
same,GI50,NCI-H226,50.6 µM (inactive)
same,GI50,T47D,61 µM (inactive)
same,GI50,COLO 205,54 µM (inactive)
same,GI50,KM12,33.9 µM (inactive)
same,GI50,UACC-257,83 µM (inactive)
same,GI50,ACHN,41.1 µM (inactive)
same,GI50,HT-29,29.6 µM (inactive)
same,GI50,SK-OV-3,83.6 µM (inactive)
same,GI50,DU-145,> 100 µM (inactive)
same,GI50,SNB-75,50.4 µM (inactive)
same,GI50,RXF 393,29.4 µM (inactive)
same,GI50,U-251,36.1 µM (inactive)
same,GI50,SNB-19,> 100 µM (inactive)
O=C1OC(c2ccccc2)=N/C1=C\c1cccc(F)c1,GI50,SW-620,> 100 µM (inactive)
same,GI50,A498,> 100 µM (inactive)
same,GI50,786-0,51.9 µM (inactive)
same,GI50,MCF7,> 100 µM (inactive)
same,GI50,SR,22.9 µM (inactive)
same,GI50,LOX IMVI,22.2 µM (inactive)
same,GI50,SF-268,34.5 µM (inactive)
same,GI50,CCRF-CEM,35.7 µM (inactive)
same,GI50,MDA-MB-435,75 µM (inactive)
same,GI50,UACC-62,> 100 µM (inactive)
same,GI50,MDA-MB-231,> 100 µM (inactive)
same,GI50,K562,> 100 µM (inactive)
same,GI50,OVCAR-5,> 100 µM (inactive)
same,GI50,SK-MEL-2,> 100 µM (inactive)
same,GI50,NCI-H522,16 µM (inactive)
same,GI50,OVCAR-3,37 µM (inactive)
same,GI50,MOLT-4,32.3 µM (inactive)
same,GI50,NCI-H460,60.5 µM (inactive)
same,GI50,SN12C,> 100 µM (inactive)
same,GI50,TK-10,> 100 µM (inactive)
same,GI50,PC-3,> 100 µM (inactive)
same,GI50,EKVX,> 100 µM (inactive)
same,GI50,MDA-N,56.6 µM (inactive)
same,GI50,UO-31,> 100 µM (inactive)
same,GI50,RPMI-8226,19.7 µM (inactive)
same,GI50,M14,57.8 µM (inactive)
same,GI50,HCT-15,> 100 µM
same,GI50,CAKI-1,> 100 µM (inactive)
same,GI50,HCT-116,> 100 µM (inactive)
same,GI50,SK-MEL-5,51.4 µM (inactive)
same,GI50,HCC 2998,72.3 µM (inactive)
same,GI50,NCI-H23,> 100 µM (inactive)
same,GI50,HL-60,24.9 µM (inactive)
same,GI50,IGROV-1,52.5 µM (inactive)
same,GI50,HOP-92,> 100 µM (inactive)
same,GI50,Hs-578T,36.3 µM (inactive)
same,GI50,A549,> 100 µM (inactive)
same,GI50,NCI/ADR-RES,27.7 µM (inactive)
same,GI50,BT-549,32.4 µM (inactive)
same,GI50,OVCAR-4,31.3 µM (inactive)
same,GI50,SK-MEL-28,96.6 µM (inactive)
same,GI50,SF-295,40.8 µM (inactive)
same,GI50,HOP-62,38.6 µM (inactive)
same,GI50,OVCAR-8,26.2 µM (inactive)
same,GI50,NCI-H226,25.9 µM (inactive)
same,GI50,T47D,> 100 µM (inactive)
same,GI50,COLO 205,> 100 µM (inactive)
same,GI50,KM12,33.5 µM (inactive)
same,GI50,UACC-257,32.7 µM (inactive)
same,GI50,ACHN,> 100 µM (inactive)
same,GI50,HT-29,> 100 µM (inactive)
same,GI50,SK-OV-3,> 100 µM (inactive)
same,GI50,DU-145,> 100 µM (inactive)
same,GI50,SNB-75,64.3 µM (inactive)
same,GI50,RXF 393,> 100 µM (inactive)
same,GI50,U-251,38.1 µM (inactive)
same,GI50,SNB-19,55 µM (inactive)
Cn1c([C@H](C#N)C(=O)c2cc(O)ccc2[N+](=O)[O-])nc2ccccc21,GI50,A498,> 100 µM (inactive)
same,GI50,786-0,> 100 µM (inactive)
same,GI50,MCF7,> 100 µM (inactive)
same,GI50,SR,5.98 µM (inactive)
same,GI50,LOX IMVI,> 100 µM (inactive)
same,GI50,SF-268,> 100 µM (inactive)
same,GI50,CCRF-CEM,10.6 µM (inactive)
same,GI50,MDA-MB-435,9.51 µM (inactive)
same,GI50,UACC-62,> 100 µM (inactive)
same,GI50,Malme-3M,17.2 µM (inactive)
same,GI50,MDA-MB-231,> 100 µM (inactive)
same,GI50,OVCAR-5,> 100 µM (inactive)
same,GI50,SK-MEL-2,> 100 µM (inactive)
same,GI50,NCI-H522,> 100 µM (inactive)
same,GI50,OVCAR-3,> 100 µM (inactive)
same,GI50,MOLT-4,4.2 µM (inactive)
same,GI50,NCI-H460,> 100 µM (inactive)
same,GI50,SN12C,> 100 µM (inactive)
same,GI50,TK-10,> 100 µM (inactive)
same,GI50,PC-3,> 100 µM (inactive)
same,GI50,EKVX,> 100 µM (inactive)
same,GI50,MDA-N,> 100 µM (inactive)
same,GI50,UO-31,> 100 µM (inactive)
same,GI50,RPMI-8226,> 100 µM (inactive)
same,GI50,M14,> 100 µM (inactive)
same,GI50,SF-539,> 100 µM (inactive)
same,GI50,HCT-15,> 100 µM
same,GI50,CAKI-1,> 100 µM (inactive)
same,GI50,HCT-116,> 100 µM (inactive)
same,GI50,SK-MEL-5,> 100 µM (inactive)
same,GI50,HCC 2998,> 100 µM (inactive)
same,GI50,NCI-H23,> 100 µM (inactive)
same,GI50,HL-60,> 100 µM (inactive)
same,GI50,IGROV-1,> 100 µM (inactive)
same,GI50,HOP-92,> 100 µM (inactive)
same,GI50,Hs-578T,> 100 µM (inactive)
same,GI50,A549,> 100 µM (inactive)
same,GI50,NCI/ADR-RES,> 100 µM (inactive)
same,GI50,BT-549,16 µM (inactive)
same,GI50,OVCAR-4,> 100 µM (inactive)
same,GI50,SK-MEL-28,> 100 µM (inactive)
same,GI50,SF-295,> 100 µM (inactive)
same,GI50,HOP-62,> 100 µM (inactive)
same,GI50,OVCAR-8,> 100 µM (inactive)
same,GI50,T47D,> 100 µM (inactive)
same,GI50,COLO 205,> 100 µM (inactive)
same,GI50,KM12,> 100 µM (inactive)
same,GI50,UACC-257,> 100 µM (inactive)
same,GI50,ACHN,> 100 µM (inactive)
same,GI50,HT-29,> 100 µM (inactive)
same,GI50,DU-145,> 100 µM (inactive)
same,GI50,SNB-75,> 100 µM (inactive)
same,GI50,U-251,> 100 µM (inactive)
same,GI50,SNB-19,> 100 µM (inactive)
